Reference: US8592455B2 (priority 2008, dated 2013)

Legend:
Pim1 kinase = Pim1 kinase (Homo sapiens (Human), UniProt P11309); details: read-out: Pim1 IC50
Pim3 kinase = Pim3 kinase (Homo sapiens (Human), UniProt Q86V86); details: read-out: Pim3 IC50

Pim1 kinase, sequence (P11309 whole entry): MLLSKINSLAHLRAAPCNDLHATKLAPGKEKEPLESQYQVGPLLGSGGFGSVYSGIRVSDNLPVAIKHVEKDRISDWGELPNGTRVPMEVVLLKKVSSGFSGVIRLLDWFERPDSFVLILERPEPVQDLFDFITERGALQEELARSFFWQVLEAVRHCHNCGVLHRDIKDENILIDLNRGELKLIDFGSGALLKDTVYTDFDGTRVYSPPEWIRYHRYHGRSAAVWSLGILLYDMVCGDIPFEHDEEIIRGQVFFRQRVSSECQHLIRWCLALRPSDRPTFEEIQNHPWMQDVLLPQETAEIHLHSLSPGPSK

Compound | IC50 (Pim1 kinase) [nM] | IC50 (Pim3 kinase) [nM]
N[C@H]1CCC[C@@H](c2ccncc2NC(=O)c2ccc(F)c(-c3cc(F)cc(F)c3F)n2)C1 [Example 14, N-(4-((1R,3S)-3-aminocyclohexyl)pyridin-3-yl)-5-fluoro-6-(2,3,5-trifluorophenyl)picolinamide] | 6 | 12
CCc1ccc(F)c(-c2cccc(C(=O)Nc3cnccc3[C@H]3C[C@@H](N)[C@H](O)[C@@H](C)C3)n2)c1F [Example 15, N-(4-((1R,3R,4R,5S)-3-amino-4-hydroxy-5-methylcyclohexyl)pyridin-3-yl)-6-(3-ethyl-2,6-difluorophenyl)picolinamide] | 3 | 6
CCc1ccc(F)c(-c2cccc(C(=O)Nc3cnccc3[C@H]3C[C@@H](N)[C@@H](O)[C@@H](C)C3)n2)c1F [Example 17, N-(4-((1R,3R,4S,5S)-3-amino-4-hydroxy-5-methylcyclohexyl)pyridin-3-yl)-6-(3-ethyl-2,6-difluorophenyl)picolinamide] | 1 | 5
CCc1ccc(F)c(-c2cccc(C(=O)Nc3cnccc3[C@@H]3CCC[C@H](N)C3)n2)c1F [Example 19, N-(4-((1R,3S)-3-aminocyclohexyl)pyridin-3-yl)-6-(3-ethyl-2,6-difluorophenyl)picolinamide] | 3 | 7
Cc1ccc(F)c(-c2nc(C(=O)Nc3cnccc3[C@@H]3CCC[C@H](N)C3)ccc2F)c1F [Example 20, N-(4-((1R,3S)-3-aminocyclohexyl)pyridin-3-yl)-6-(2,6-difluoro-3-methylphenyl)-5-fluoropicolinamide] | 1 | 3
CCc1ccc(F)c(-c2cccc(C(=O)Nc3cnccc3[C@@H]3C[C@H](C)C[C@H](N)C3)n2)c1F [Example 21, N-(4-((1R,3S,5S)-3-amino-5-methylcyclohexyl)pyridin-3-yl)-6-(3-ethyl-2,6-difluorophenyl)picolinamide] | 2 | 6
Cc1ccc(F)c(-c2nc(C(=O)Nc3cnccc3N3C[C@@H](N)[C@H](O)[C@@H](C)C3)ccc2F)c1F [Example 22, N-(4-((3R,4R,5S)-3-amino-4-hydroxy-5-methylpiperidin-1-yl)pyridin-3-yl)-6-(2,6-difluoro-3-methylphenyl)-5-fluoropicolinamide] | 1 | 3
C[C@H]1CN(c2ccncc2NC(=O)c2cccc(-c3ccccc3F)n2)C[C@@H](N)[C@@H]1O [Example 23, N-(4-((3R,4R,5S)-3-amino-4-hydroxy-5-methylpiperidin-1-yl)pyridin-3-yl)-6-(2-fluorophenyl)picolinamide] | 2 | 3
C[C@H]1CN(c2ccncc2NC(=O)c2nc(-c3c(F)cccc3F)ccc2F)C[C@@H](N)[C@@H]1O [Example 24, N-(4-((3R,4R,5S)-3-amino-4-hydroxy-5-methylpiperidin-1-yl)pyridin-3-yl)-6-(2,6-difluorophenyl)-3-fluoropicolinamide] | 1 | 1
Cc1ccc(F)c(-c2nc(C(=O)Nc3cnccc3[C@@H]3C[C@H](C)C[C@H](N)C3)ccc2F)c1F [Example 27, N-(4-((1R,3S,5S)-3-amino-5-methylcyclohexyl)pyridin-3-yl)-6-(2,6-difluoro-3-methylphenyl)-5-fluoropicolinamide] | 1 | 2
Cc1ccc(F)c(-c2cccc(C(=O)Nc3cnccc3[C@@H]3CCC[C@H](N)C3)n2)c1F [Example 28, N-(4-((1R,3S)-3-aminocyclohexyl)pyridin-3-yl)-6-(2,6-difluoro-3-methylphenyl)picolinamide] | 1 | 2
Cc1ccc(F)c(-c2cccc(C(=O)Nc3cnccc3[C@H]3C[C@@H](N)[C@H](O)[C@@H](C)C3)n2)c1F [Example 30, N-(4-((1R,3R,4R,5S)-3-amino-4-hydroxy-5-methylcyclohexyl)pyridin-3-yl)-6-(2,6-difluoro-3-methylphenyl)picolinamide] | 2 | 4
Cc1ccc(F)c(-c2cccc(C(=O)Nc3cnccc3[C@H]3C[C@@H](N)[C@@H](O)[C@@H](C)C3)n2)c1F [Example 31, N-(4-((1R,3R,4S,5S)-3-amino-4-hydroxy-5-methylcyclohexyl)pyridin-3-yl)-6-(2,6-difluoro-3-methylphenyl)picolinamide] | 2 | 4
N[C@H]1CCC[C@@H](c2ccncc2NC(=O)c2ccc(F)c(-c3c(F)cc(O)cc3F)n2)C1 [Example 32, N-(4-((1R,3S)-3-aminocyclohexyl)pyridin-3-yl)-6-(2,6-difluoro-4-hydroxyphenyl)-5-fluoropicolinamide] | 1 | 3
N[C@H]1CCC[C@@H](c2ccncc2NC(=O)c2ccc(F)c(-c3cc(O)ccc3F)n2)C1 [Example 33, N-(4-((1R,3S)-3-aminocyclohexyl)pyridin-3-yl)-5-fluoro-6-(2-fluoro-5-hydroxyphenyl)picolinamide] | 1 | 3
N[C@H]1CCC[C@@H](c2ccncc2NC(=O)c2nc(-c3cc(O)ccc3F)ccc2F)C1 [Example 34, N-(4-((1R,3S)-3-aminocyclohexyl)pyridin-3-yl)-3-fluoro-6-(2-fluoro-5-hydroxyphenyl)picolinamide] | 4 | 6

Compound | IC50 (Pim1 kinase) [nM] | IC50 (Pim3 kinase) [nM]
C[C@@H]1C[C@H](N)C[C@H](c2ccncc2NC(=O)c2cccc(-c3cc(O)ccc3F)n2)C1 [Example 35, N-(4-((1R,3S,5S)-3-amino-5-methylcyclohexyl)pyridin-3-yl)-6-(2-fluoro-5-hydroxyphenyl)picolinamide] | 1 | 3
C[C@@H]1C[C@H](N)C[C@H](c2ccncc2NC(=O)c2cccc(-c3ccc(O)cc3F)n2)C1 [Example 37, N-(4-((1R,3S,5S)-3-amino-5-methylcyclohexyl)pyridin-3-yl)-6-(2-fluoro-4-hydroxyphenyl)picolinamide] | 2 | 5
C[C@@H]1C[C@H](N)C[C@H](c2ccncc2NC(=O)c2ccc(F)c(-c3ccc(O)cc3F)n2)C1 [Example 38, N-(4-((1R,3S,5S)-3-amino-5-methylcyclohexyl)pyridin-3-yl)-5-fluoro-6-(2-fluoro-4-hydroxyphenyl)picolinamide] | 1 | 3
C[C@@H]1C[C@H](N)C[C@H](c2ccncc2NC(=O)c2nc(-c3ccc(O)cc3F)ccc2F)C1 [Example 39, N-(4-((1R,3S,5S)-3-amino-5-methylcyclohexyl)pyridin-3-yl)-3-fluoro-6-(2-fluoro-4-hydroxyphenyl)picolinamide] | 7 | 12
C[C@@H]1C[C@H](N)C[C@H](c2ccncc2NC(=O)c2nc(-c3cc(O)ccc3F)ccc2F)C1 [Example 43, N-(4-((1R,3S,5S)-3-amino-5-methylcyclohexyl)pyridin-3-yl)-3-fluoro-6-(2-fluoro-5-hydroxyphenyl)picolinamide] | 1 | 2
COc1ccc(F)c(-c2nc(C(=O)Nc3cnccc3[C@H]3C[C@@H](N)[C@H](O)[C@@H](C)C3)ccc2F)c1F [Example 47, N-(4-((1R,3R,4R,5S)-3-amino-4-hydroxy-5-methylcyclohexyl)pyridin-3-yl)-6-(2,6-difluoro-3-methoxyphenyl)-5-fluoropicolinamide] | 1 | 3
CC1(C)C[C@H](N)C[C@H](c2ccncc2NC(=O)c2ccc(F)c(-c3c(F)cccc3F)n2)C1 [Example 49, N-(4-((1R,5R)-5-amino-3,3-dimethylcyclohexyl)pyridin-3-yl)-6-(2,6-difluorophenyl)-5-fluoropicolinamide] | 1 | 2
C[C@@H]1C[C@H](N)C[C@H](c2ccncc2NC(=O)c2nc(-c3c(F)cccc3F)c(F)cc2N)C1 [Example 51, 3-amino-N-(4-((1R,3S,5S)-3-amino-5-methylcyclohexyl)pyridin-3-yl)-6-(2,6-difluorophenyl)-5-fluoropicolinamide] | 1 | 1
N[C@H]1CCC[C@@H](c2ccncc2NC(=O)c2ccc(F)c([C@H]3CC[C@@H](O)CC3)n2)C1 [Example 53, N-(4-((1R,3S)-3-aminocyclohexyl)pyridin-3-yl)-5-fluoro-6-((1s,4s)-4-hydroxycyclohexyl)picolinamide] | 10 | 65
N[C@H]1CCC[C@@H](c2ccncc2NC(=O)c2ccc(F)c([C@H]3CC[C@H](O)CC3)n2)C1 [Example 56, N-(4-((1R,3S)-3-aminocyclohexyl)pyridin-3-yl)-5-fluoro-6-((1r,4r)-4-hydroxycyclohexyl)picolinamide] | 11 | 102
C[C@@H]1C[C@H](N)C[C@H](c2ccncc2NC(=O)c2ccc(F)c(-c3cc(F)ccc3F)n2)C1 [Example 61, N-(4-((1R,3S,5S)-3-amino-5-methylcyclohexyl)pyridin-3-yl)-6-(2,5-difluorophenyl)-5-fluoropicolinamide] | 1 | 4
C[C@@H]1C[C@H](N)C[C@H](c2ccncc2NC(=O)c2cccc(-c3ccccc3F)n2)C1 [Example 62, N-(4-((1R,3S,5S)-3-amino-5-methylcyclohexyl)pyridin-3-yl)-6-(2-fluorophenyl)picolinamide] | 1 | 3
C[C@@H]1C[C@H](N)C[C@H](c2ccncc2NC(=O)c2cccc(-c3c(F)cccc3F)n2)C1 [Example 63, N-(4-((1R,3S,5S)-3-amino-5-methylcyclohexyl)pyridin-3-yl)-6-(2,6-difluorophenyl)picolinamide] | 1 | 2
CCCOc1ccc(F)c(-c2nc(C(=O)Nc3cnccc3[C@@H]3CC[C@H](O)[C@H](N)C3)ccc2F)c1 [Example 64, N-(4-((1R,3R,4S)-3-amino-4-hydroxycyclohexyl)pyridin-3-yl)-5-fluoro-6-(2-fluoro-5-propoxyphenyl)picolinamide] | 2 | 5
CCCOc1ccc(F)c(-c2nc(C(=O)Nc3cnccc3[C@@H]3CC[C@H](O)[C@H](N)C3)c(N)cc2F)c1 [Example 67, 3-amino-N-(4-((1R,3R,4S)-3-amino-4-hydroxycyclohexyl)pyridin-3-yl)-5-fluoro-6-(2-fluoro-5-propoxyphenyl)picolinamide] | 1 | 3
